# ChEMBL document CHEMBL4837192, “The Bisindole Alkaloids Angustilongines M and A from Alstonia penangiana Induce Mitochondrial Apoptosis and G0/G1 Cell Cycle Arrest in HT-29 Cells through Promotion of Tubulin Polymerization” (J Nat Prod, 2021)
# Activity calls are given as the source filed them. The rule behind the calls is not given here.
# Tests used:
# KB [1] = assay: Cytotoxicity against human vincristine-sensitive KB cells assessed as cell growth inhibition measured after 72 hrs by MTT assay; format: functional, cell-based
# KB [2] = assay: Cytotoxicity against human vincristine-resistant KB cells assessed as cell growth inhibition measured after 72 hrs by MTT assay; format: functional, cell-based
# [3] = Selectivity index, ratio of IC50 for human CCD-18Co cells to IC50 for human HT-29 cells assessed as cell growth inhibition measured after 48 hrs by MTT assay
# HT-29 [4] = assay: Anticlonogenic activity against human HT-29 cells assessed as inhibition of colony formation measured after 6 days by methylene blue staining based assay; format: functional, cell-based; details: dose 1.35-2.7 µM, time 6.0 day
# HT-29 [5] = assay: Induction of apoptosis in human HT-29 cells assessed as early apoptotic cells at 2.7 uM measured after 24 hrs by FITC-annexin V/propidium iodide- double staining based flow cytometry analysis (Rvb= 12.8%); format: functional
# HT-29 [6] = assay: Induction of apoptosis in human HT-29 cells assessed as activation of caspase-3 at 2.7 uM measured after 72 hrs by flow cytometry analysis (Rvb= 2.2%); format: functional
# HT-29 [7] = assay: Induction of apoptosis in human HT-29 cells assessed as dead cells at 2.7 uM measured after 72 hrs by FITC-annexin V/propidium iodide- double staining based flow cytometry analysis (Rvb= 0.4%); format: functional
# HT-29 [8] = assay: Induction of apoptosis in human HT-29 cells assessed as early apoptotic cells at 2.7 uM measured after 48 hrs by FITC-annexin V/propidium iodide- double staining based flow cytometry analysis (Rvb= 12.8%); format: functional
# HT-29 [9] = assay: Induction of cell cycle arrest in human HT-29 cells assessed as accumulation of cells at G2 phase at 2.7 uM measured after 24 hrs by propidium iodide staining based flow cytometry analysis (Rvb= 9.09%); format: functional
# Tubulin (Homo sapiens) = Tubulin (Homo sapiens) (UniProt P68371+Q9H4B7+P0DPH7+P68366+Q13509+Q71U36+P04350+Q3ZCM7+P07437+P68363+Q9BQE3+Q6PEY2+Q13885+Q9BVA1+Q9BUF5); assay: Induction of tubulin polymerization in human HT-29 cells assessed as stabilization of microtubules at 10 uM by spectrophotometric analysis; format: cell-based
# HT-29 [10] = assay: Induction of apoptosis in human HT-29 cells assessed as late apoptotic cells at 2.7 uM measured after 24 hrs by FITC-annexin V/propidium iodide- double staining based flow cytometry analysis (Rvb= 3.0%); format: functional
# HT-29 [11] = assay: Induction of cell cycle arrest in human HT-29 cells assessed as accumulation of cells at G2 phase at 2.7 uM measured after 48 hrs by propidium iodide staining based flow cytometry analysis (Rvb= 9.09%); format: functional
# HT-29 [12] = assay: Induction of apoptosis in human HT-29 cells assessed as viable cells at 2.7 uM measured after 48 hrs by FITC-annexin V/propidium iodide- double staining based flow cytometry analysis (Rvb= 83.8%); format: functional; details: read-out: Activity
# HT-29 [13] = assay: Induction of mitochondrial membrane potential loss in human HT-29 cells assessed as healthy cells at 2.7 uM measured after 24 hrs by JC-1 staining based flow cytometry analysis (Rvb= 91.4%); format: functional
# HT-29 [14] = assay: Induction of apoptosis in human HT-29 cells assessed as activation of caspase-3 at 2.7 uM measured after 24 hrs by flow cytometry analysis (Rvb= 2.2%); format: functional
# HT-29 [15] = assay: Induction of mitochondrial membrane potential loss in human HT-29 cells assessed as healthy cells at 2.7 uM measured after 72 hrs by JC-1 staining based flow cytometry analysis (Rvb= 91.4%); format: functional
# HT-29 [16] = assay: Antiproliferative activity in human HT-29 cells cultured as 3D spheroids assessed as gradual disaggregation of peripheral cells at IC50 measured after 48 hrs; format: functional, cell-based
# HT-29 [17] = assay: Induction of mitochondrial membrane potential loss in human HT-29 cells assessed as apoptotic cells at 2.7 uM measured after 72 hrs by JC-1 staining based flow cytometry analysis (Rvb= 8.6%); format: functional
# HT-29 [18] = assay: Induction of mitochondrial membrane potential loss in human HT-29 cells assessed as apoptotic cells at 2.7 uM measured after 48 hrs by JC-1 staining based flow cytometry analysis (Rvb= 8.6%); format: functional
# HT-29 [19] = assay: Induction of cell cycle arrest in human HT-29 cells assessed as accumulation of cells at G1 phase at 2.7 uM measured after 24 hrs by propidium iodide staining based flow cytometry analysis (Rvb= 55.39%); format: functional
# HT-29 [20] = assay: Induction of cell cycle arrest in human HT-29 cells assessed as accumulation of cells at S phase at 2.7 uM measured after 72 hrs by propidium iodide staining based flow cytometry analysis (Rvb= 35.52%); format: functional
# HT-29 [21] = assay: Induction of apoptosis in human HT-29 cells assessed as viable cells at 2.7 uM measured after 72 hrs by FITC-annexin V/propidium iodide- double staining based flow cytometry analysis (Rvb= 83.8%); format: functional; details: read-out: Activity
# HT-29 [22] = assay: Induction of mitochondrial membrane potential loss in human HT-29 cells assessed as healthy cells at 2.7 uM measured after 48 hrs by JC-1 staining based flow cytometry analysis (Rvb= 91.4%); format: functional
# HT-29 [23] = assay: Induction of cell cycle arrest in human HT-29 cells assessed as accumulation of cells at G1 phase at 2.7 uM measured after 48 hrs by propidium iodide staining based flow cytometry analysis (Rvb= 55.39%); format: functional
# HT-29 [24] = assay: Induction of apoptosis in human HT-29 cells assessed as dead cells at 2.7 uM measured after 48 hrs by FITC-annexin V/propidium iodide- double staining based flow cytometry analysis (Rvb= 0.4%); format: functional
# HT-29 [25] = assay: Induction of apoptosis in human HT-29 cells assessed as early apoptotic cells at 2.7 uM measured after 72 hrs by FITC-annexin V/propidium iodide- double staining based flow cytometry analysis (Rvb= 12.8%); format: functional
# HT-29 [26] = assay: Antiproliferative activity in human HT-29 cells cultured as 3D spheroids assessed as reduction in 3D structure of spheroid morphology at IC50 measured after 48 hrs; format: functional, cell-based
# HT-29 [27] = assay: Cytotoxicity against human HT-29 cells assessed as cell growth inhibition measured after 48 hrs by MTT assay; format: functional, cell-based; details: HT-29, 48 h
# HT-29 [28] = assay: Induction of apoptosis in human HT-29 cells assessed as viable cells at 2.7 uM measured after 24 hrs by FITC-annexin V/propidium iodide- double staining based flow cytometry analysis (Rvb= 83.8%); format: functional; details: read-out: Activity
# HT-29 [29] = assay: Induction of mitochondrial membrane potential loss in human HT-29 cells assessed as apoptotic cells at 2.7 uM measured after 24 hrs by JC-1 staining based flow cytometry analysis (Rvb= 8.6%); format: functional
# HT-29 [30] = assay: Induction of apoptosis in human HT-29 cells assessed as activation of caspase-3 at 2.7 uM measured after 48 hrs by flow cytometry analysis (Rvb= 2.2%); format: functional
# HT-29 [31] = assay: Induction of cell cycle arrest in human HT-29 cells assessed as accumulation of cells at G1 phase at 2.7 uM measured after 72 hrs by propidium iodide staining based flow cytometry analysis (Rvb= 55.39%); format: functional
# HT-29 [32] = assay: Induction of apoptosis in human HT-29 cells assessed as dead cells at 2.7 uM measured after 24 hrs by FITC-annexin V/propidium iodide- double staining based flow cytometry analysis (Rvb= 0.4%); format: functional
# HT-29 [33] = assay: Induction of cell cycle arrest in human HT-29 cells assessed as accumulation of cells at S phase at 2.7 uM measured after 48 hrs by propidium iodide staining based flow cytometry analysis (Rvb= 35.52%); format: functional
# HT-29 [34] = assay: Induction of cell cycle arrest in human HT-29 cells assessed as accumulation of cells at S phase at 2.7 uM measured after 24 hrs by propidium iodide staining based flow cytometry analysis (Rvb= 35.52%); format: functional
# CCD-18Co = assay: Cytotoxicity against human CCD-18Co cells assessed as cell growth inhibition measured after 48 hrs by MTT assay; format: cell-based
# HT-29 [35] = assay: Induction of apoptosis in human HT-29 cells assessed as late apoptotic cells at 2.7 uM measured after 48 hrs by FITC-annexin V/propidium iodide- double staining based flow cytometry analysis (Rvb= 3.0%); format: functional
# HT-29 [36] = assay: Antiproliferative activity against human HT-29 cells cultured as 3D spheroids assessed as inhibition of spheroid formation measured after 48 hrs by MTT assay; format: functional, cell-based; details: HT-29, 48 h
# HT-29 [37] = assay: Induction of cell cycle arrest in human HT-29 cells assessed as accumulation of cells at G2 phase at 2.7 uM measured after 72 hrs by propidium iodide staining based flow cytometry analysis (Rvb= 9.09%); format: functional
# HT-29 [38] = assay: Induction of apoptosis in human HT-29 cells assessed as late apoptotic cells at 2.7 uM measured after 72 hrs by FITC-annexin V/propidium iodide- double staining based flow cytometry analysis (Rvb= 3.0%); format: functional
structure (smiles),measurement,setting,value
CC[C@]1(O)C[C@H]2CN(CCc3c([nH]c4ccccc34)[C@@](C(=O)OC)(c3cc4c(cc3OC)N(C=O)[C@H]3[C@@](O)(C(=O)OC)[C@H](OC(C)=O)[C@]5(CC)C=CCN6CC[C@]43[C@@H]65)C2)C1 [VINCRISTINE],IC50,KB [1],0.8 nM
same,IC50,KB [2],800 nM
C/C=C1/CN2CC[C@]34c5cc([C@@H](C)[C@H]6[C@@H]7C[C@H]8c9c(c%10ccccc%10n9C)C[C@@H]([C@@H]7CO[C@@H]6O)N8C)c(OC)cc5N(C)[C@H]3[C@@H]2C[C@@H]1C4C(=O)OC (stereo not given in full),Ratio IC50,[3],4.88
same,Activity,HT-29 [4],Dose-Dependent Effect
same,Activity,HT-29 [5],13.8%
same,Activity,HT-29 [6],50.2%
same,Activity,HT-29 [7],0.2%
same,Activity,HT-29 [8],28.2%
same,Activity,HT-29 [9],9.84%
same,Activity,Tubulin (Homo sapiens),Active
same,Activity,HT-29 [10],9.8%
same,Activity,HT-29 [11],9.01%
same,viability at 2.7 µM,HT-29 [12],61.8%
same,Activity,HT-29 [13],88.7%
same,Activity,HT-29 [14],1.7%
same,Activity,HT-29 [15],35.8%
same,Activity,HT-29 [16],Active
same,Activity,HT-29 [17],64.2%
same,Activity,HT-29 [18],31.2%
same,Activity,HT-29 [19],56.04%
same,Activity,HT-29 [20],13.77%
same,viability at 2.7 µM,HT-29 [21],25.2%
same,Activity,HT-29 [22],68.8%
same,Activity,HT-29 [23],67.84%
same,Activity,HT-29 [24],0.2%
same,Activity,HT-29 [25],49.1%
same,Activity,HT-29 [26],Active
same,IC50,HT-29 [27],2500 nM
same,viability at 2.7 µM,HT-29 [28],76.2%
same,Activity,HT-29 [29],11.3%
same,Activity,HT-29 [30],8.2%
same,Activity,HT-29 [31],76.79%
same,Activity,HT-29 [32],0.2%
same,Activity,HT-29 [33],23.15%
same,Activity,HT-29 [34],34.12%
same,IC50,CCD-18Co,12200 nM
same,Activity,HT-29 [35],9.9%
same,IC50,HT-29 [36],10000 nM
same,Activity,HT-29 [37],9.44%
same,Activity,HT-29 [38],25.6%
